Measured values as given in patent publication US7547804B2, “Compounds, compositions, and methods employing same” (Myriad Genetics, Inc., priority 2002, dated 2009).

Test system: LNCaP cell lines
Experiment: WST-1 Cell Proliferation and Viability Assay
Assay type: cell-based
Conditions: Homo sapiens, LNCaP cells
In short: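 LNCaP cells (5000/well, phenol-red-free RPMI-1640 with 10% FCS) were plated overnight, then exposed to compounds in 0.1% DMSO final for 18-72 hours at 37 °C. Viability was read by WST-1 conversion to formazan after 3 h further incubation, measured at A490-A650.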

[1] = compound incubation 18-72 hours
[2] = flagged "Estimated": based on actual data at different concentrations

Structure (SMILES)	EC50 [1] [µM]	EC50 [2] [µM]
COc1ccc(O)c(C(=O)Nc2cccc(OCCc3ccccc3)c2)c1 [Compound 187]	30	
O=C(Nc1cc(Cl)ccc1OCCc1cccc(F)c1)c1cc(Cl)ccc1O [Compound 111]	1	
COc1ccc(NC(=O)c2cc(Cl)ccc2O)c(OC)c1 [Compound 256]	26	
O=C(Nc1cc(C(F)(F)F)ccc1OCCc1ccccc1C(F)(F)F)c1cc(Cl)ccc1O [Compound 134]	0.9	
CCOc1cc(CNc2cccc(NC(=O)c3cc(Cl)ccc3O)c2)ccc1OCc1ccccc1 [Compound 10]	14	
Cc1ccc(CCOc2ccc(Cl)cc2NC(=O)c2cc(Cl)ccc2O)cc1 [Compound 78]	2	
CC(=O)Nc1cccc(C(=O)Nc2cccc(OCCc3ccccc3)c2)c1O [Compound 2]	23	
Cc1ccccc1CCOc1cccc(NC(=O)c2cc(Cl)ccc2O)c1 [Compound 55]	15	
N#Cc1ccc(OCCc2ccccc2C(F)(F)F)c(NC(=O)c2cc(Cl)ccc2O)c1 [Compound 140]	3	
CCOCCOc1ccc(C(F)(F)F)cc1NC(=O)c1cc(Cl)ccc1O [Compound 295]	1	
COc1ccccc1CCOc1cccc(NC(=O)c2cccc(C(C)C)c2O)c1 [Compound 203]	33	
Cc1cc(C)cc(COc2cccc(NC(=O)c3cc(Cl)ccc3O)c2)c1 [Compound 105]	8	
COc1ccccc1CCOc1cccc(NC(=O)c2cc(-c3cccc(C(F)(F)F)c3)ccc2O)c1 [Compound 352]	7	
COc1ccc(CCOc2ccc(Cl)c(NC(=O)c3cc(Cl)ccc3O)c2)cc1 [Compound 37]	3	
O=C(Nc1cccc(OCC2(c3ccccc3)CC2)c1)c1cc(Cl)ccc1O [Compound 44]	5	
Cc1cc(OCCc2cccc(C(F)(F)F)c2)c(NC(=O)c2cc(Cl)ccc2O)cc1Cl [Compound 243]	1	
O=C(Nc1ccc(OC2CCCC[C@H]2c2ccccc2)cc1)c1cc(Cl)ccc1O (stereo partly shown) [Compound 97]	3	
CC1CN(c2ccc(NC(=O)c3cc(Cl)ccc3O)c(OCCc3ccccc3C(F)(F)F)c2)CC(C)O1 (stereo not shown) [Compound 241]	3	
COc1ccccc1CCOc1cccc(NC(=O)c2cc(-c3ccccc3OC)ccc2O)c1 [Compound 343]	17	
CCN(Cc1ccncc1)c1ccc(NC(=O)c2cc(Cl)ccc2O)c(OCCc2cccc(C(F)(F)F)c2)c1 [Compound 377]	4	
O=C(Nc1cccc(OCCc2ccccc2)c1)c1cccc(O)c1 [Compound 227]		22
O=C(Nc1cccc(Cl)c1OCCc1cccc(C(F)(F)F)c1)c1cc(Cl)ccc1O [Compound 158]	2	

Structure (SMILES)	EC50 [1] [µM]	EC50 [2] [µM]
Cc1ccc(O)c(C(=O)Nc2cccc(OCCc3ccccc3)c2)c1 [Compound 212]	20	
O=C(Nc1ccc(C(F)(F)F)cc1)c1cc(Cl)ccc1O [Compound 61]	1	
Cc1ccc(OCCc2ccccc2)c(NC(=O)c2cc(Cl)ccc2O)c1 [Compound 149]	4	
CCOCCOCCOc1ccc(C(F)(F)F)cc1NC(=O)c1cc(Cl)ccc1O [Compound 298]	3	
Cc1ccc(COc2ccc(C(F)(F)F)cc2NC(=O)c2cc(Cl)ccc2O)cc1 [Compound 332]	0.74	
CCC(COc1ccc(Cl)cc1NC(=O)c1cc(Cl)ccc1O)c1ccccc1 (stereo not shown) [Compound 103]	2	
COc1ccccc1CCOc1cccc(NC(=O)c2cc(F)ccc2O)c1 [Compound 183]	19	
O=C(Nc1cc(C(F)(F)F)ccc1SCCc1cccc(C(F)(F)F)c1)c1cc(Cl)ccc1O [Compound 260]	1	
O=C(Nc1cccc(OCCc2ccccc2)c1)c1ccc(F)cc1O [Compound 191]	15	
O=C(NCc1ccc(F)c(C(F)(F)F)c1)c1cc(Cl)ccc1O [Compound 319]	17.7	
O=C(Nc1cc(C(F)(F)F)ccc1OCCc1ccc(Cl)cc1)c1cc(Cl)ccc1O [Compound 129]	0.8	
Cc1cc(C)c(CCOc2ccc(Cl)cc2NC(=O)c2cc(Cl)ccc2O)c(C)c1 [Compound 81]	1	
O=C(NCc1ccccc1-c1ccccc1)c1cc(Cl)ccc1O [Compound 237]		30
O=C(Nc1cc(Cl)ccc1OCCCc1ccccc1)c1cc(Cl)ccc1O [Compound 75]	1	
Cc1cccc(OCCc2ccccc2C(F)(F)F)c1NC(=O)c1cc(Cl)ccc1O [Compound 173]	11	
CC(C)c1ccc(COc2cccc(NC(=O)c3cc(Cl)ccc3O)c2)cc1 [Compound 85]	6	
O=C(Nc1cc(Cl)cc(Cl)c1OCCc1ccccc1C(F)(F)F)c1cc(Cl)ccc1O [Compound 172]	3	
Cc1c(CNC(=O)c2cc(Cl)ccc2O)cccc1-c1ccccc1 [Compound 120]		18
Cc1cccc(COc2ccc(C(F)(F)F)cc2NC(=O)c2cc(Cl)ccc2O)c1 [Compound 307]	1.8	
Cc1ccccc1-c1cccc(CNC(=O)c2cc(Cl)ccc2O)c1 [Compound 144]		30
O=C(Nc1cc(Cl)ccc1OCCc1ccccc1Cl)c1cc(Cl)ccc1O [Compound 110]	1	
Cc1ccc(OCCc2ccccc2)cc1NC(=O)c1cc(Cl)ccc1O [Compound 43]	3	

Structure (SMILES)	EC50 [1] [µM]	EC50 [2] [µM]
COc1ccccc1CCOc1cccc(NC(=O)c2cc(-c3ccc(Cl)c(Cl)c3)ccc2O)c1 [Compound 341]	9	
COc1ccccc1CCOc1cccc(N(C)C(=O)c2cc(Cl)ccc2O)c1 [Compound 228]		30
O=C(Nc1cc(Cl)ccc1OCCc1cccc(OC(F)(F)F)c1)c1cc(Cl)ccc1O [Compound 284]	2	
CN(CCc1ccccn1)c1ccc(NC(=O)c2cc(Cl)ccc2O)cc1C(F)(F)F [Compound 364]	7	
Cc1cc(C)c(OCCc2cccc(C(F)(F)F)c2)c(NC(=O)c2cc(Cl)ccc2O)c1 [Compound 159]	2	
CC(C)c1cccc(-c2cccc(CNC(=O)c3cc(Cl)ccc3O)c2)c1 [Compound 175]	14	
COc1ccccc1CCOc1cccc(N(C)C(=O)c2cc(Cl)ccc2OC)c1 [Compound 216]		32
O=C(Nc1cccc(OCCc2ccccc2)c1)c1cc(Br)ccc1O [Compound 193]	7	
O=C(Nc1cc(C(F)(F)F)ccc1OCCOc1ccc(Cl)cc1)c1cc(Cl)ccc1O [Compound 300]	1	
O=C(Nc1cccc(CNc2ccc(Cl)cc2)c1)c1cc(Cl)ccc1O [Compound 74]	9	
Cc1cccc(CCOc2ccc(Cl)cc2NC(=O)c2cc(Cl)ccc2O)c1 [Compound 77]	1	
O=C(Nc1cc(C(F)(F)F)ccc1OCCc1ccc(Cl)s1)c1cc(Cl)ccc1O [Compound 254]	1	
Cc1cccc(C(=O)Nc2cccc(OCCc3ccccc3)c2)c1O [Compound 210]	22	
O=C(Nc1cc(C(F)(F)F)ccc1OCCc1ccc(OC(F)(F)F)cc1)c1cc(Cl)ccc1O [Compound 162]	0.9	
O=C(Nc1cc(C(F)(F)F)ccc1OCCc1cccc(C(F)(F)F)c1)c1cc(Cl)ccc1O [Compound 155]	0.4	
O=C(Nc1cc(C(F)(F)F)ccc1OCCc1ccc(Cl)cc1Cl)c1cc(Cl)ccc1O [Compound 253]	1	
O=C(Nc1cccc(OCCc2ccccc2)c1)c1cc(F)ccc1O [Compound 184]	15	
O=C(Nc1cccc(OCCc2cccc(F)c2)c1)c1cc(Cl)ccc1O [Compound 35]	10	
O=C(Nc1cccc(Cl)c1)c1cc(Cl)ccc1O [Compound 94]	3	
Cc1ccc(OCCc2ccccc2C(F)(F)F)c(NC(=O)c2cc(Cl)ccc2O)c1 [Compound 142]	3	
COc1cccc(CCOc2ccc(Cl)c(NC(=O)c3cc(Cl)ccc3O)c2)c1 [Compound 33]	3	
O=C(Nc1cc(Cl)ccc1OCCC1CC1)c1cc(Cl)ccc1O [Compound 288]	3.3	

Structure (SMILES)	EC50 [1] [µM]	EC50 [2] [µM]
Cc1ccc(CCOc2cccc(NC(=O)c3cc(Cl)ccc3O)c2)cc1 [Compound 59]	10	
Cc1cccc(COc2ccc(Cl)cc2NC(=O)c2cc(Cl)ccc2O)c1 [Compound 311]	3	
COc1ccc(C(=O)Nc2cccc(OCCc3ccccc3)c2)c(O)c1 [Compound 185]	32	
CC(C)c1ccc(CNc2cccc(NC(=O)c3cc(Cl)ccc3O)c2)cc1 [Compound 14]	18	
COc1ccccc1CCOc1cccc(NC(=O)c2cc(-c3cccc4ccccc34)ccc2O)c1 [Compound 338]	7	
COc1ccccc1CCOc1cccc(NC(=O)c2cc(-c3cccs3)ccc2O)c1 [Compound 356]	16	
O=C(Nc1cccc(C(F)(F)F)c1)c1cc(Cl)ccc1O [Compound 56]	1	
COC(=O)CCc1ccccc1CCOc1ccc(Cl)cc1NC(=O)c1cc(Cl)ccc1O [Compound 303]	3.3	
O=C(Nc1cc(OC(F)(F)F)ccc1OCCc1cccc(C(F)(F)F)c1)c1cc(Cl)ccc1O [Compound 262]	0.9	
O=C(NCc1cc(C(F)(F)F)cc(C(F)(F)F)c1)c1cc(Cl)ccc1O [Compound 122]	9	
O=C(Nc1cc(Cl)ccc1OC1CCCC[C@H]1c1ccccc1)c1cc(Cl)ccc1O (stereo partly shown) [Compound 98]	4	
O=C(Nc1cc(Cl)ccc1OCCc1cccc(C(F)(F)F)c1)c1cc(Cl)ccc1O [Compound 83]	0.8	
O=C(Nc1cc(NC(=O)c2cc(Cl)ccc2O)cc(C(F)(F)F)c1)c1cc(Cl)ccc1O [Compound 151]		30
COc1ccccc1CCOc1cccc(NC(=O)c2cccc(F)c2O)c1 [Compound 353]		25
CCC(COc1cccc(NC(=O)c2cc(Cl)ccc2O)c1)c1ccccc1 (stereo not shown) [Compound 42]	3	
Cc1cc(OCCc2ccc(CC(F)(F)F)cc2)c(NC(=O)c2cc(Cl)ccc2O)cc1Cl [Compound 164]	1	
CCN(CC)CCN(CC)c1ccc(NC(=O)c2cc(Cl)ccc2O)c(OCCc2cccc(C(F)(F)F)c2)c1 [Compound 361]	8	
O=C(NCc1cccc(OCCc2ccccc2)c1)c1cc(Cl)ccc1O [Compound 66]	50	
O=C(Nc1ccccc1)c1cc(Cl)ccc1O [Compound 168]	17	
